From ChEMBL document CHEMBL5113477, “Membrane acting Povarov-Doebner derived compounds potently disperse preformed multidrug resistant Gram-positive bacterial biofilms” (Eur J Med Chem, 2022)
Values after ≈ are worked out from the molar mass of the structure shown. Active and inactive are the calls of the source. The calls are words filed in the database; no cut-off is given here.

Columns and labels:
[1] = tested on: Enterococcus faecium; test: Antibacterial activity against vancomycin-resistant Enterococcus faecium ATCC 700221 assessed as reduction in visible bacterial growth incubated for 18 to 20 hrs by CLSI based broth microdilution analysis; format: functional; details: time 18-20 hrs
[2] = tested on: Staphylococcus aureus; test: Antibacterial activity against methicillin-resistant Staphylococcus aureus ATCC 33592 assessed as reduction in visible bacterial growth incubated for 18 to 20 hrs by CLSI based broth microdilution analysis; format: functional; details: time 18-20 hrs
[3] = tested on: Enterococcus faecium; test: (§1) Synergistic antibiofilm activity against vancomycin-resistant Enterococcus faecium ATCC 700221 in TSB broth assessed as dispersal of glucose-induced biofilm by measuring Nitroxoline MBEC preincubated with glucose for 48 hrs followed by compound addition and measured after 24 hrs by crystal violet staining based checkerboard assay; format: functional
[4] = tested on: Listeria monocytogenes; test: Antibacterial activity against Listeria monocytogenes ATCC 19115 assessed as reduction in visible bacterial growth incubated for 18 to 20 hrs by CLSI based broth microdilution analysis; format: functional; details: time 18-20 hrs
[5] = tested on: Staphylococcus aureus; test: Antibacterial activity against methicillin-resistant Staphylococcus aureus USA 300 assessed as reduction in visible bacterial growth incubated for 18 to 20 hrs by CLSI based broth microdilution analysis; format: functional; details: time 18-20 hrs
[6] = tested on: Staphylococcus aureus; test: Antibacterial activity against methicillin-resistant Staphylococcus aureus USA 300 (ARLG 1569) assessed as reduction in visible bacterial growth incubated for 18 to 20 hrs by CLSI based broth microdilution analysis; format: functional; details: time 18-20 hrs
[7] = tested on: Staphylococcus aureus; test: Antibacterial activity against methicillin-resistant Staphylococcus aureus USA 300 (ARLG 1570) assessed as reduction in visible bacterial growth incubated for 18 to 20 hrs by CLSI based broth microdilution analysis; format: functional; details: time 18-20 hrs
[8] = tested on: Staphylococcus aureus; test: Antibacterial activity against methicillin-resistant Staphylococcus aureus USA 300 (ARLG 1649) assessed as reduction in visible bacterial growth incubated for 18 to 20 hrs by CLSI based broth microdilution analysis; format: functional; details: time 18-20 hrs
[9] = tested on: Staphylococcus aureus; test: Antibacterial activity against methicillin-resistant Staphylococcus aureus USA 300 (ARLG 1663) assessed as reduction in visible bacterial growth incubated for 18 to 20 hrs by CLSI based broth microdilution analysis; format: functional; details: time 18-20 hrs
[10] = tested on: Staphylococcus aureus; test: Antibacterial activity against methicillin-resistant Staphylococcus aureus USA 300 (ARLG 1665) assessed as reduction in visible bacterial growth incubated for 18 to 20 hrs by CLSI based broth microdilution analysis; format: functional; details: time 18-20 hrs
[11] = tested on: Staphylococcus aureus; test: Bactericidal activity against exponential phase of methicillin-resistant Staphylococcus aureus USA 300 at 1 to 4 times MIC incubated for 2 to 8 hrs by time kill assay; format: functional, organism-based; details: time 2-8 hrs
[12] = tested on: Staphylococcus aureus; test: Inhibition of biofilm formation in methicillin-resistant Staphylococcus aureus ATCC 33592 in TSB broth at 0.0078 to 4 ug/ml incubated for 48 hrs in presence of glucose by crystal violet staining based analysis; format: functional, organism-based; details: dose 0.0078-4 µg/ml
[13] = tested on: Staphylococcus aureus; test: Inhibition of biofilm formation in methicillin-resistant Staphylococcus aureus USA 300 in TSB broth at 0.0078 to 4 ug/ml incubated for 48 hrs in presence of glucose by crystal violet staining based analysis; format: functional, organism-based; details: dose 0.0078-4 µg/ml
[14] = tested on: Staphylococcus aureus; test: Antibiofilm activity against methicillin-resistant Staphylococcus aureus ATCC 33592 in TSB broth assessed as dispersal of glucose-induced biofilm at 8 to 16 ug/ml preincubated with glucose for 48 hrs followed by compound addition and measured after 24 hrs by crystal violet staining based analysis; format: functional; details: dose 8-16 µg/ml, at 8 to 16 µg/mL
[15] = tested on: Staphylococcus aureus; test: Antibiofilm activity against methicillin-resistant Staphylococcus aureus USA 300 in TSB broth assessed as dispersal of glucose-induced biofilm at 8 to 16 ug/ml preincubated with glucose for 48 hrs followed by compound addition and measured after 24 hrs by crystal violet staining based analysis; format: functional; details: dose 8-16 µg/ml, at 8 to 16 µg/mL
[16] = tested on: Staphylococcus aureus; test: as §1, with “methicillin-resistant Staphylococcus aureus USA 300” for “vancomycin-resistant Enterococcus faecium ATCC 700221”; format: functional
[17] = tested on: Staphylococcus aureus; test: as §1, with “methicillin-resistant Staphylococcus aureus USA 300” for “vancomycin-resistant Enterococcus faecium ATCC 700221”, “Bithionol” for “Nitroxoline”; format: functional
[18] = tested on: Staphylococcus aureus; test: (§2) Synergistic antibiofilm activity against methicillin-resistant Staphylococcus aureus USA 300 in TSB broth assessed as dispersal of glucose-induced biofilm preincubated with glucose for 48 hrs followed by compound addition and further incubated for 24 hrs in presence of Bithionol by crystal violet staining based checkerboard assay; format: functional
[19] = tested on: Staphylococcus aureus; test: as §2, with “glucose-induced biofilm by measuring fractional inhibitory concentration index preincubated with” for “glucose-induced biofilm preincubated with”; format: functional
[20] = tested on: Enterococcus faecalis; test: Antibiofilm activity against vancomycin-resistant Enterococcus faecalis ATCC 51575 in TSB broth assessed as dispersal of glucose-induced biofilm preincubated with glucose for 48 hrs followed by compound addition and measured after 24 hrs by crystal violet staining based analysis; format: functional
[21] = tested on: Enterococcus faecalis; test: (§3) Synergistic antibiofilm activity against vancomycin-resistant Enterococcus faecalis ATCC 51575 in TSB broth assessed as dispersal of glucose-induced biofilm preincubated with glucose for 48 hrs followed by compound addition and further incubated for 24 hrs in presence of Nitroxoline by crystal violet staining based checkerboard assay; format: functional
[22] = tested on: Enterococcus faecalis; test: as §3, with “Bithionol” for “Nitroxoline”; format: functional
[23] = tested on: Enterococcus faecalis; test: as §3, with “glucose-induced biofilm by measuring fractional inhibitory concentration index preincubated with” for “glucose-induced biofilm preincubated with”; format: functional
[24] = tested on: Enterococcus faecalis; test: (§4) Synergistic antibiofilm activity against vancomycin-resistant Enterococcus faecalis ATCC 51575 in TSB broth assessed as dispersal of glucose-induced biofilm by measuring fractional inhibitory concentration index preincubated with glucose for 48 hrs followed by compound addition and further incubated for 24 hrs in presence of Bithionol by crystal violet staining based checkerboard assay; format: functional
[25] = tested on: Enterococcus faecium; test: as §1, with “[…]” for “Nitroxoline”; format: functional
[26] = tested on: Enterococcus faecium; test: as §4, with “faecium” for “faecalis”, “700221” for “51575”; format: functional
[27] = tested on: Staphylococcus aureus; test: (§5) Synergistic antibiofilm activity against methicillin-resistant Staphylococcus aureus USA 300 in TSB broth assessed as dispersal of glucose-induced biofilm at 1 ug/ml preincubated with glucose for 48 hrs followed by compound addition and further incubated for 24 hrs in presence of Nitroxoline by crystal violet staining based assay; format: functional; details: dose 1 µg/ml
[28] = tested on: Staphylococcus aureus; test: Synergistic antibiofilm activity against methicillin-resistant Staphylococcus aureus USA 300 in TSB broth assessed as dispersal of glucose-induced biofilm with distribution of ruptured bacteria components and debris at 4 ug/ml preincubated with glucose for 48 hrs followed by compound addition and further incubated for 24 hrs in presence of Bithionol by SEM analysis; format: functional, organism-based; details: dose 4.0 µg/ml
[29] = tested on: Staphylococcus aureus; test: as §5, with “1 ug/ml Bithionol and AgNO3” for “Nitroxoline”, “analysis” for “assay”; format: functional; details: dose 1 µg/ml
[30] = tested on: Enterococcus faecium; test: Synergistic antibiofilm activity against vancomycin-resistant Enterococcus faecium ATCC 700221 in TSB broth assessed as dispersal of glucose-induced biofilm at 2 ug/ml preincubated with glucose for 48 hrs followed by compound addition and further incubated for 24 hrs in presence of 0.5 ug/ml Bithionol and AgNO3 by crystal violet staining based analysis; format: functional; details: dose 2 µg/ml
[31] = tested on: Staphylococcus aureus; test: Inhibition of RNA synthesis in Staphylococcus aureus ATCC 25923 at 0.25 to 8 ug/ml by [5-3H]-uridine incorporation assay; format: functional, organism-based; details: dose 0.25-8 µg/ml
[32] = tested on: Erythrocyte; test: Hemolytic activity in sheep RBC at 10 times MIC incubated for 30 mins by spectrophotometry; format: toxicity, cell-based, Ovis aries; details: 0.5 h

For Oc1ccc([C@@H]2Nc3ccc(S(F)(F)(F)(F)F)cc3[C@H]3[C@@H]4CC[C@@H](C4)[C@H]32)cc1, the MBC [1] was 2 mg/L (≈ 4.79 µM), the MIC [1] was 2 mg/L (≈ 4.79 µM) and the MBC [2] was 1 mg/L (≈ 2.4 µM). It also gave an MIC [2] of 2 mg/L (≈ 4.79 µM), an MBEC [3] of 0.5 µg/mL and an MIC [4] of 1 mg/L (≈ 2.4 µM). It also gave an MBC [5] of 2 mg/L (≈ 4.79 µM), an MIC [5] of 1 mg/L (≈ 2.4 µM) and an MBC [6] of 2 mg/L (≈ 4.79 µM). The MIC [6] was 1 mg/L (≈ 2.4 µM), the MBC [7] was 2 mg/L (≈ 4.79 µM) and the MIC [7] was 1 mg/L (≈ 2.4 µM). It also gave an MBC [8] of 2 mg/L (≈ 4.79 µM), an MIC [8] of 1 mg/L (≈ 2.4 µM) and an MBC [9] of 2 mg/L (≈ 4.79 µM). The MIC [9] was 0.5 mg/L (≈ 1.2 µM), the MBC [10] was 2 mg/L (≈ 4.79 µM) and the MIC [10] was 1 mg/L (≈ 2.4 µM). For the same compound, the Activity [11] was “Active”, the inhibition [12] was “Active” and the inhibition [13] was “Active”. For the same compound, the Activity [14] was 70%, the Activity [15] was 70% and the MBEC [16] was 4 µg/mL. For the same compound, the MBEC [17] was 1 µg/mL, the MBEC [18] was 4 µg/mL and the “fractional inhibitory concentration index (FICI)” value [19] was 0.25. The MBEC [20] was 16 µg/mL, the MBEC [21] was 4 µg/mL and the MBEC [22] was 2 µg/mL. For the same compound, the “fractional inhibitory concentration index (FICI)” value [23] was 0.38, the “fractional inhibitory concentration index (FICI)” value [24] was 0.5 and the MBEC [25] was 2 µg/mL. For the same compound, the “fractional inhibitory concentration index (FICI)” value [26] was 0.28, the Activity [27] was over 80% and the Activity [28] was “Active”. The Activity [29] was over 80%, the Activity [30] was over 70% and the inhibition [31] was “Active”. For the same compound, the Activity [32] was “Non-Toxic”.
